We go through one compound from article PMC7996900 (Microorganisms, 2021).

SMILES strings stand for the structures.

The assay addresses SUMOHis6-GdpX6^GGDEF (GdpX6, PXO_02019) (Xanthomonas oryzae, UniProt A0A0K0GND9). Nature of the assay: biochemical.

SUMOHis6-GdpX6^GGDEF (GdpX6, PXO_02019), sequence (A0A0K0GND9 318-494 limits assumed): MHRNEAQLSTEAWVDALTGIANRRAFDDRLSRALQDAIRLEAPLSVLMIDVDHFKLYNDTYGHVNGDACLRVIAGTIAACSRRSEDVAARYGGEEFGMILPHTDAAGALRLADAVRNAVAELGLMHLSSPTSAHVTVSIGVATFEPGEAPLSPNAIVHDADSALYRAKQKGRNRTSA

Compound `Nc1nc2c(ncn2[C@@H]2O[C@@H]3CO[P@](=O)(O)O[C@H]4[C@@H](O)[C@H](n5cnc6c(=O)[nH]c(N)nc65)O[C@@H]4CO[P@](=O)(O)O[C@H]3[C@H]2O)c(=O)[nH]1` [c-di-GMP] had a dissociation constant Kd of 9 ± 2.98 µM.
